In one series the test system is Panc-1 cell line. The series can be described thus: CCK8 and colony assay of Panc-1 cell line. Type of series: cell-based, human. The following applies: Panc-1, 10μM D166, CCK8 and colony assay. The source says:
(§1) Western Blot showing cGAS-STING pathway protein expression of Panc-1 cell line
(§2) (B) CCK8 of Panc-1 cell line when
(§3) (C-D) Representative image (C) and statistic (D) of […]
A general note: Tetrazolium assays rely on reduction of a dye to a coloured formazan, in cell work by metabolically active cells.

The test system of series [1] is STING and downstream signaling molecules. The series can be described thus: STING pathway western blot in Panc-1 cell line. The following applies: human pancreatic cell line Panc-1. Type of series: cell-based. The method, then:
(§4) Tumor tissues or cells were thoroughly lysed in RIPA buffer containing protease and phosphatase inhibitors. The lysates were then centrifuged to collect the supernatant. Proteins were separated by electrophoresis in MOPS buffer and subsequently transferred onto a PVDF membrane. After blocking, the membrane was sequentially incubated with the primary antibody, secondary antibody, and chemiluminescent substrate (ECL) for imaging.
as §1, §2, §3
(In western blotting, separated proteins are transferred to a membrane and probed.)

Another series concerns cGAS-STING pathway. The series can be described thus: cGAS-STING pathway, IFN-β and ISG readout in pancreatic cancer organoids. Type of series: cell-based, human. How it is done: as §4
RNA from tumor tissues or cells was extracted using the SteadyPure Universal RNA Extraction Kit (Accurate Biology) and reverse transcribed into cDNA with the Evo M-MLV Reverse Transcription Kit (Accurate Biology). Relative RNA expression levels were quantified using 2X Universal SYBR Green Fast qPCR Mix (Abclonal), and the results were recorded on the qTOWER®3 84 Real-Time PCR system.
Multiplex cytokine detection was performed using Luminex cytokine bead array technology provided by WayenBio, Shanghai. In the mouse tumor model, levels of multiple cytokines were simultaneously measured and normalized to tumor weight. For the quantification of specific cytokines, such as IL-6 and IFN-β, enzyme-linked immunosorbent assay (ELISA) kits from Abclonal were used. The assays were conducted according to the manufacturer's instructions.

The target in a further series is T1, h-STING (Homo sapiens, UniProt Q86WV6, G230A/R293Q/R71H).
T1 construct: THP1-Dual Fold (10 μM); endogenous in cells; host or cells: THP1-Dual
The series is described as follows: THP1-Dual reporter activation fold. Type of series: cell-based.

Series [2] deals with orthotopic PDAC microenvironment. The series is described as follows: Flow cytometry and scRNA-seq of orthotopic PDAC microenvironment. Format: in vivo, mice. The method, then: Bulk RNA sequencing was performed by GenePlus (China) on pancreatic cancer organoids treated with 10 μM of […] or MSA-2, compared to a control group, with three biological replicates. The sequencing data are available for access and analysis via the provided website. Single-cell RNA sequencing (scRNA-seq) was conducted by NovelBio (China) on in situ mouse pancreatic tumors following tissue digestion. The resulting sequencing data were analyzed using R software. Mouse tumors were digested using the Mouse Tumor Dissociation Kit (Miltenyi Biotec) according to the manufacturer's protocol. The resulting single-cell suspension was filtered through a 70-micron mesh to ensure a homogeneous cell population. Cells were stained with fluorescently labeled antibodies for flow cytometry at 4°C on ice for 30 minutes. After washing off unbound antibodies, fluorescence was detected using a Beckman CytoFlex S flow cytometer. For co-cultured immune cells, separated T cells and macrophages were similarly stained with flow cytometry antibodies. For cytokine staining, cells were pre-stimulated with the eBioscienceTM Cell Stimulation Cocktail for 4 hours. For intracellular protein staining, after surface staining, cells were fixed and permeabilized using the BD Cytofix/CytopermTM Fixation/Permeabilization Kit, followed by staining for intracellular proteins. Flow cytometry data were analyzed using FlowJo 10 software.
(In general: A flow cytometer gives signals particle by particle.)

A short description of series [3]: Metabolite profiling in liver microsomes, 60 min incubation. Format: in vitro ADME, human. To be noted: D166 incubated 60 min; selected ion chromatographic peak areas.
A further series has as its target T2, m-STING (Mus musculus, UniProt Q3TBT3).
T2 construct: Raw-lucia Fold (50 μM); endogenous in cells; host or cells: RAW-Lucia
T2 sequence (Q3TBT3 1-378): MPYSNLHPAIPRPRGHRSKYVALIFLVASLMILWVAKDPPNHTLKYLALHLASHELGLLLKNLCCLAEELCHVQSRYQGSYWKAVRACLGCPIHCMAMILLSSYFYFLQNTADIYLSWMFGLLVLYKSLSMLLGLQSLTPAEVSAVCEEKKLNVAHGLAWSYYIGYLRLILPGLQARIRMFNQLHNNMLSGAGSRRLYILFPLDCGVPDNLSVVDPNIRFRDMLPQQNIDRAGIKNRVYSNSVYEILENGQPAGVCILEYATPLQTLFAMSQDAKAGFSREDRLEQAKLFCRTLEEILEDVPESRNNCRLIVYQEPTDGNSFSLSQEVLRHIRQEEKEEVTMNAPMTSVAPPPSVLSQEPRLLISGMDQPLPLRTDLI
The series can be described thus: Raw-lucia reporter activation fold. Type of series: cell-based.

For series [4], the system named is human STING variants (R232). The series is described as follows: Differential scanning fluorimetry (DSF). Type of series: binding. The following applies: n = 3. The source says:
(§5) human STING variants (R232) and mouse STING (R231) in differential scanning
(§6) fluorimetry (DSF) assay. The data were shown as the mean value of fluorescence (n =
(§7) (1 picture or pasted object on this page, not shown here)

A further series concerns the target T3, mouse STING (R231) (Mus musculus, UniProt Q3TBT3).
T3 sequence (Q3TBT3 1-378): T2 sequence (Q3TBT3 1-378)
The series can be described thus: Differential scanning fluorimetry (DSF). Type of series: binding. The following applies: n = 3.
Source text: as §5, §6, §7

Setting [5] is: flow cytometry of tumor suspensions.

Data on one compound can be found in publication PMC12160547, “Identification of a Novel Small Molecule STING Agonist Reshaping the Immunomicroenvironment of Pancreatic Ductal Adenocarcinoma” (International Journal of Biological Sciences, 2025).

Structures are written as SMILES.

T1 sequence (Q86WV6 whole entry R71H/G230A/R293Q): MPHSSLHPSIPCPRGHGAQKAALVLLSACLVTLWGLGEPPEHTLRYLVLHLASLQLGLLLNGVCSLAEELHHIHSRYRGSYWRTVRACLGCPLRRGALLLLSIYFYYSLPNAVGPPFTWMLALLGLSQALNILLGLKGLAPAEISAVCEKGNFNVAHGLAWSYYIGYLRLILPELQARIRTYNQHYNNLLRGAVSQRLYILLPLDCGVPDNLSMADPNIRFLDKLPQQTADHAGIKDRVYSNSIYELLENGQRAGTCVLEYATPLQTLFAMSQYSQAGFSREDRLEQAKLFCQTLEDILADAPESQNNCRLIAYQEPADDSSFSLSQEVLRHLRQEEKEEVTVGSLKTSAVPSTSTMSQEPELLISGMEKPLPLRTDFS

As for `[2H]C([2H])([2H])Oc1cc2cc(C(=O)CCC(=O)O)sc2cc1OC([2H])([2H])[2H]` [D166], the proliferation result with Panc-1 cell line was “without affecting proliferation”. In addition, the “activation of STING and downstream signaling molecules” value in series [1] was “dose- and time-dependent manner”. The “activating IFN-stimulated genes (ISGs) compared with ADU-S100, MSA-2, SR-717, MK-1454 and DXMAA” value with cGAS-STING pathway (organoids, 10μM) was “better efficacy”. Further, the “activation of the cGAS-STING pathway and induction of IFN-β” value with cGAS-STING pathway (pancreatic cancer organoids, different concentration and duration) was “time- and dose-dependent effect”. Further, the “THP1-Dual Fold (10 μM)” value on h-STING was 60.46 Fold. Besides, the “proportion of ductal cells (including cancer cells) and fibroblasts” value in series [2] (10 mg/kg D166, 10X single-cell sequencing) is reported as “significant reduction”. In [2] (setting [5]), the “F4/80-positive macrophages among the myeloid cells” value is “significant increase”; the “proportion of CD4+ and CD8+ T cells” value was “significantly increased”. Besides, in series [3], the “Relative Peak Area Abundance (%) HLM” value was found to be 98.5%. Also, the “Raw-lucia Fold (50 μM)” value at m-STING is on record as 25.34 Fold. Also, the “thermal stability of human STING variants (R232)” value in [4] is listed as “increased”. The “thermal stability of mouse STING (R231)” value on mouse STING (R231) is listed as “increased”.
